Active and inactive are the calls of the source. The calls are words filed in the database; no cut-off is given here.
Key:
Glycine max [1] = assay: Binding affinity to soybean p1 15-LOX at 100 pmol after 1 hr by magnetic microbead affinity selection screening method
[2] = target: T1, Polyunsaturated fatty acid lipoxygenase ALOX15 (Homo sapiens, UniProt P16050); assay: Inhibition of 15-LOX (unknown origin)
T1 sequence (P16050 whole entry): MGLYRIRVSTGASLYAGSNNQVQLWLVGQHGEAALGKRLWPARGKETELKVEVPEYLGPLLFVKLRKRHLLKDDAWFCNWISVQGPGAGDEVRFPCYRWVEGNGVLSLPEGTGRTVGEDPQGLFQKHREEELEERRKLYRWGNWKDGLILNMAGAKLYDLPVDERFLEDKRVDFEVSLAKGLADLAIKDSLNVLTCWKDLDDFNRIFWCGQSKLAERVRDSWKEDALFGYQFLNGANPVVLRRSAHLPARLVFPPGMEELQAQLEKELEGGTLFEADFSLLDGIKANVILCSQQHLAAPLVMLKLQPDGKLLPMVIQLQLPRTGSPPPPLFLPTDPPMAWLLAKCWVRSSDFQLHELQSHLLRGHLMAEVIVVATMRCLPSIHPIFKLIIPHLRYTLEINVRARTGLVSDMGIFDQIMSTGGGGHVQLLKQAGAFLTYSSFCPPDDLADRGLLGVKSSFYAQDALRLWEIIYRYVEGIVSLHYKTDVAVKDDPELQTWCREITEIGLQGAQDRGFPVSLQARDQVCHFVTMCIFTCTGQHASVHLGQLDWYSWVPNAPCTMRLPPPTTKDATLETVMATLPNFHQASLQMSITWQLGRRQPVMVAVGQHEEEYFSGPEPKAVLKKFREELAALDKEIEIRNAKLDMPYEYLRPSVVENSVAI

[3] = Inhibition of 15-LOX in soybean using linoleic acid as substrate measured for 30 to 90 secs; parameters: species or system Glycine max
Glycine max [4] = assay: Binding affinity to soybean p1 15-LOX at 10 ug after 1 hr by magnetic microbead affinity selection screening method

O=c1cc(-c2ccc(O)c(O)c2)oc2cc(O)cc(O)c12 [LUTEOLIN]
Activity (Glycine max [1]): Active
IC50 [2]: 5 µM

O=c1c2ccccc2[se]n1-c1ccccc1
Activity (Glycine max [1]): inactive

C[C@@H]1O[C@@H](Oc2c(-c3ccc(O)c(O)c3)oc3cc(O)cc(O)c3c2=O)[C@H](O)[C@H](O)[C@H]1O [QUERCITRIN]
IC50 [3]: 79.8 µM
Activity (Glycine max [4]): Active

From ChEMBL document CHEMBL3997767, “Magnetic Microbead Affinity Selection Screening (MagMASS) of Botanical Extracts for Inhibitors of 15-Lipoxygenase” (J Nat Prod, 2016)
